The source of these data is patent publication US6335031B1, “TTS containing an antioxidant” (priority 1998, dated 2002).

Data set [1] is described as follows: degradation testing of Compound A and of the prior-art transdermal composition. It is filed as physicochemical. To be noted: particularly in the presence of oxygen; prior-art composition in occlusive polymer matrix and air-tight packaging.
Data set [2] in a line: tolerability of Compound A given orally. To be noted: oral, initial dose 1.5 mg twice a day, stepped up to 3 mg twice daily in week 2. It is filed as in vivo. The protocol: (§1) Higher dosages are possible, for example 4.5 mg twice daily and even 6 mg twice daily. Tolerability is seen to be even better for the transdermal device, wherein 24 mg were absorbed in 24 hours.
Data set [3] is described as follows: tolerability and absorption of Compound A from transdermal patches. The data set is classed as in vivo. The protocol: The transdermal devices of the invention in general have, for example an effective contact area of pharmaceutical composition on the skin of from about 1 to about 80 square centimeters, preferably about 10 square centimeters, and are intended to be applied at intervals of about once every 1 to 7 days, preferably 1-3 days. […] Compound A may, for example be administered at a dose of 8 mg in a patch of ca. 10 cm^2, once every day. The patch may be applied, for example on the abdomen, thigh, behind an ear, or on a shoulder or upper arm.
as §1

For the compound `CCN(C)C(=O)Oc1cccc([C@H](C)N(C)C)c1` [Compound A], the susceptibility to degradation entry in data set [1] is “susceptible to degradation”. The tolerability entry in data set [2] was “well tolerated”; in data set [3] (transdermal, 36 mg free base in up to 80 cm^2 of patches), “well tolerated”. The “tolerability of transdermal device compared with oral” value in data set [3] (transdermal device, 24 mg absorbed in 24 hours) was “even better”. Moreover, the amount absorbed in data set [3] (transdermal device, in 24 hours) is listed as 24 mg; in data set [3] (transdermal, patches up to 80 cm^2 containing 36 mg compound A), 12 mg.
